# Data from the supplement of paper PMC6045584.
# ± gives the standard deviation of the averaged measurements.
# What was measured:
# [1] = compound: CC(=O)O[C@H]1C(=O)[C@@]2(C)[C@H]([C@H](OC(=O)c3ccccc3)[C@]3(O)C[C@H](OC(=O)[C@H](O)[C@@H](NC(=O)c4ccccc4)c4ccccc4)C(C)=C1C3(C)C)[C@]1(OC(C)=O)CO[C@@H]1C[C@@H]2O [PACLITAXEL]; assay: surviving fraction relative to DMSO-only wells; higher = less growth inhibition; conditions: exposure time: 5 days
# Summary of the method: (§1)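 Tumour cell lines in log phase were plated in 384-well plates at 250–500 cells per well, then, after 24 hours, exposed continuously for five days to inhibitors at 0.5, 1, 5, 10, 50, 100, 500 and 1000 nM. Viability came from CellTiter-Glo luminescence, and surviving fraction is that signal normalised to the median of DMSO-only wells. Plates were read after 10 minutes at room temperature, and each line, screened three times, was kept only when replicate Pearson r was >0.7 and median Z' was >0.3.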
# [2] = compound: O=C(O)C1(C(=O)O)CCC1.[NH2-].[NH2-].[Pt+2] [CARBOPLATIN]; assay: as above; conditions: exposure time: 5 days
# Summary of the method: as §1
test system,measurement,setting,value
SG32 HEADNECK,surviving fraction,[1]; 0.5 nM,0.906 ± 0.26
same,surviving fraction,[1]; 1 nM,0.603 ± 0.093
same,surviving fraction,[1]; 5 nM,0.275 ± 0.032
same,surviving fraction,[1]; 10 nM,0.259 ± 0.015
same,surviving fraction,[1]; 50 nM,0.281 ± 0.062
same,surviving fraction,[1]; 100 nM,0.275 ± 0.02
same,surviving fraction,[1]; 500 nM,0.244 ± 0.02
same,surviving fraction,[1]; 1000 nM,0.218 ± 0.021
same,surviving fraction,[2]; 0.5 nM,1.12 ± 0.12
same,surviving fraction,[2]; 1 nM,1.07 ± 0.17
same,surviving fraction,[2]; 5 nM,1.15 ± 0.17
same,surviving fraction,[2]; 10 nM,1.17 ± 0.051
same,surviving fraction,[2]; 50 nM,1.27 ± 0.12
same,surviving fraction,[2]; 100 nM,1.38 ± 0.35
same,surviving fraction,[2]; 500 nM,1.16 ± 0.2
same,surviving fraction,[2]; 1000 nM,1.04 ± 0.17
PCI30 HEADNECK,surviving fraction,[1]; 0.5 nM,0.721 ± 0.06
same,surviving fraction,[1]; 1 nM,0.355 ± 0.044
same,surviving fraction,[1]; 5 nM,0.199 ± 0.022
same,surviving fraction,[1]; 10 nM,0.114 ± 0.03
same,surviving fraction,[1]; 50 nM,0.0853 ± 0.011
same,surviving fraction,[1]; 100 nM,0.0737 ± 0.016
same,surviving fraction,[1]; 500 nM,0.0753 ± 0.016
same,surviving fraction,[1]; 1000 nM,0.071 ± 0.0061
same,surviving fraction,[2]; 0.5 nM,1.07 ± 0.036
same,surviving fraction,[2]; 1 nM,1.09 ± 0.04
same,surviving fraction,[2]; 5 nM,1.03 ± 0.021
same,surviving fraction,[2]; 10 nM,1.11 ± 0.093
same,surviving fraction,[2]; 50 nM,1.12 ± 0.067
same,surviving fraction,[2]; 100 nM,1.08 ± 0.03
same,surviving fraction,[2]; 500 nM,1.07 ± 0.079
same,surviving fraction,[2]; 1000 nM,1.07 ± 0.039
SIHA CERVIX,surviving fraction,[1]; 0.5 nM,0.988 ± 0.031
same,surviving fraction,[1]; 1 nM,0.948 ± 0.04
same,surviving fraction,[1]; 5 nM,0.238 ± 0.029
same,surviving fraction,[1]; 10 nM,0.136 ± 0.014
same,surviving fraction,[1]; 50 nM,0.0897 ± 0.0031
same,surviving fraction,[1]; 100 nM,0.0817 ± 0.004
same,surviving fraction,[1]; 500 nM,0.101 ± 0.0087
same,surviving fraction,[1]; 1000 nM,0.0943 ± 0.014
same,surviving fraction,[2]; 0.5 nM,1.14 ± 0.065
same,surviving fraction,[2]; 1 nM,1.18 ± 0.038
same,surviving fraction,[2]; 5 nM,1.13 ± 0.088
same,surviving fraction,[2]; 10 nM,1.21 ± 0.094
same,surviving fraction,[2]; 50 nM,1.16 ± 0.1
same,surviving fraction,[2]; 100 nM,1.21 ± 0.044
same,surviving fraction,[2]; 500 nM,1.08 ± 0.048
same,surviving fraction,[2]; 1000 nM,1.14 ± 0.02
HS57T BREAST,surviving fraction,[1]; 0.5 nM,0.773 ± 0.045
same,surviving fraction,[1]; 1 nM,0.478 ± 0.058
same,surviving fraction,[1]; 5 nM,0.0727 ± 0.0025
same,surviving fraction,[1]; 10 nM,0.0563 ± 0.0021
same,surviving fraction,[1]; 50 nM,0.0457 ± 0.0042
same,surviving fraction,[1]; 100 nM,0.0463 ± 0.0065
same,surviving fraction,[1]; 500 nM,0.0353 ± 0.0021
same,surviving fraction,[1]; 1000 nM,0.0403 ± 0.007
same,surviving fraction,[2]; 0.5 nM,1.03 ± 0.015
same,surviving fraction,[2]; 1 nM,1.08 ± 0.11
same,surviving fraction,[2]; 5 nM,1.09 ± 0.028
same,surviving fraction,[2]; 10 nM,1.12 ± 0.029
same,surviving fraction,[2]; 50 nM,1.11 ± 0.084
same,surviving fraction,[2]; 100 nM,1.08 ± 0.033
same,surviving fraction,[2]; 500 nM,1.07 ± 0.092
same,surviving fraction,[2]; 1000 nM,1.05 ± 0.054
HCC1806 BREAST,surviving fraction,[1]; 0.5 nM,0.89 ± 0.17
same,surviving fraction,[1]; 1 nM,0.1833 ± 0.0015
same,surviving fraction,[1]; 5 nM,0.0437 ± 0.0038
same,surviving fraction,[1]; 10 nM,0.0357 ± 0.0032
same,surviving fraction,[1]; 50 nM,0.0307 ± 0.0057
same,surviving fraction,[1]; 100 nM,0.0207 ± 0.0029
same,surviving fraction,[1]; 500 nM,0.0253 ± 0.0031
same,surviving fraction,[1]; 1000 nM,0.021 ± 0.0017
same,surviving fraction,[2]; 0.5 nM,1.05 ± 0.14
same,surviving fraction,[2]; 1 nM,0.777 ± 0.044
same,surviving fraction,[2]; 5 nM,1.1 ± 0.15
same,surviving fraction,[2]; 10 nM,1.2 ± 0.012
same,surviving fraction,[2]; 50 nM,1.17 ± 0.081
same,surviving fraction,[2]; 100 nM,1.14 ± 0.14
same,surviving fraction,[2]; 500 nM,1.04 ± 0.086
same,surviving fraction,[2]; 1000 nM,1.16 ± 0.14
BT549 BREAST,surviving fraction,[1]; 0.5 nM,0.963 ± 0.13
same,surviving fraction,[1]; 1 nM,0.219 ± 0.04
same,surviving fraction,[1]; 5 nM,0.0553 ± 0.0085
same,surviving fraction,[1]; 10 nM,0.0387 ± 0.0025
same,surviving fraction,[1]; 50 nM,0.049 ± 0.0079
same,surviving fraction,[1]; 100 nM,0.041 ± 0.0027
same,surviving fraction,[1]; 500 nM,0.038 ± 0.0053
same,surviving fraction,[1]; 1000 nM,0.0463 ± 0.014
same,surviving fraction,[2]; 0.5 nM,1.08 ± 0.038
same,surviving fraction,[2]; 1 nM,1.19 ± 0.04
same,surviving fraction,[2]; 5 nM,1.06 ± 0.081
same,surviving fraction,[2]; 10 nM,1.05 ± 0.03
same,surviving fraction,[2]; 50 nM,1.05 ± 0.097
same,surviving fraction,[2]; 100 nM,1.2 ± 0.072
same,surviving fraction,[2]; 500 nM,0.967 ± 0.034
same,surviving fraction,[2]; 1000 nM,1.16 ± 0.032
HELA CERVIX,surviving fraction,[1]; 0.5 nM,1.04 ± 0.037
same,surviving fraction,[1]; 1 nM,1.05 ± 0.1
same,surviving fraction,[1]; 5 nM,0.0503 ± 0.001
same,surviving fraction,[1]; 10 nM,0.0423 ± 0.0041
same,surviving fraction,[1]; 50 nM,0.0277 ± 0.0016
same,surviving fraction,[1]; 100 nM,0.0237 ± 0.0039
same,surviving fraction,[1]; 500 nM,0.017 ± 0.0015
same,surviving fraction,[1]; 1000 nM,0.0247 ± 0.00076
same,surviving fraction,[2]; 0.5 nM,1.07 ± 0.02
same,surviving fraction,[2]; 1 nM,1.03 ± 0.042
same,surviving fraction,[2]; 5 nM,1.03 ± 0.034
same,surviving fraction,[2]; 10 nM,1.01 ± 0.02
same,surviving fraction,[2]; 50 nM,1.05 ± 0.053
same,surviving fraction,[2]; 100 nM,1.14 ± 0.088
same,surviving fraction,[2]; 500 nM,1.15 ± 0.055
same,surviving fraction,[2]; 1000 nM,1.09 ± 0.045
MDAMB453 BREAST,surviving fraction,[1]; 0.5 nM,0.988 ± 0.082
same,surviving fraction,[1]; 1 nM,0.998 ± 0.096
same,surviving fraction,[1]; 5 nM,0.382 ± 0.051
same,surviving fraction,[1]; 10 nM,0.303 ± 0.02
same,surviving fraction,[1]; 50 nM,0.164 ± 0.014
same,surviving fraction,[1]; 100 nM,0.145 ± 0.016
same,surviving fraction,[1]; 500 nM,0.131 ± 0.015
same,surviving fraction,[1]; 1000 nM,0.134 ± 0.015
same,surviving fraction,[2]; 0.5 nM,1.07 ± 0.068
same,surviving fraction,[2]; 1 nM,1.05 ± 0.07
same,surviving fraction,[2]; 5 nM,1.15 ± 0.024
same,surviving fraction,[2]; 10 nM,1.1 ± 0.076
same,surviving fraction,[2]; 50 nM,1.07 ± 0.018
same,surviving fraction,[2]; 100 nM,1.1 ± 0.069
same,surviving fraction,[2]; 500 nM,1.01 ± 0.02
same,surviving fraction,[2]; 1000 nM,0.993 ± 0.011
HCC202 BREAST,surviving fraction,[1]; 0.5 nM,1.15 ± 0.51
same,surviving fraction,[1]; 1 nM,0.655 ± 0.15
same,surviving fraction,[1]; 5 nM,0.377 ± 0.091
same,surviving fraction,[1]; 10 nM,0.364 ± 0.12
same,surviving fraction,[1]; 50 nM,0.362 ± 0.027
same,surviving fraction,[1]; 100 nM,0.362 ± 0.047
same,surviving fraction,[1]; 500 nM,0.352 ± 0.032
same,surviving fraction,[1]; 1000 nM,0.327 ± 0.098
same,surviving fraction,[2]; 0.5 nM,1.19 ± 0.33
same,surviving fraction,[2]; 1 nM,1.05 ± 0.058
same,surviving fraction,[2]; 5 nM,1.31 ± 0.09
same,surviving fraction,[2]; 10 nM,1.07 ± 0.36
same,surviving fraction,[2]; 50 nM,1.02 ± 0.23
same,surviving fraction,[2]; 100 nM,1.14 ± 0.018
same,surviving fraction,[2]; 500 nM,1.27 ± 0.4
same,surviving fraction,[2]; 1000 nM,1.34 ± 0.34
HCC70 BREAST,surviving fraction,[1]; 0.5 nM,0.937 ± 0.071
same,surviving fraction,[1]; 1 nM,0.81 ± 0.07
same,surviving fraction,[1]; 5 nM,0.218 ± 0.029
same,surviving fraction,[1]; 10 nM,0.102 ± 0.019
same,surviving fraction,[1]; 50 nM,0.099 ± 0.032
same,surviving fraction,[1]; 100 nM,0.0517 ± 0.014
same,surviving fraction,[1]; 500 nM,0.0543 ± 0.015
same,surviving fraction,[1]; 1000 nM,0.0647 ± 0.031
same,surviving fraction,[2]; 0.5 nM,1.04 ± 0.049
same,surviving fraction,[2]; 1 nM,1.07 ± 0.078
same,surviving fraction,[2]; 5 nM,1.13 ± 0.14
same,surviving fraction,[2]; 10 nM,1.13 ± 0.05
same,surviving fraction,[2]; 50 nM,1.19 ± 0.064
same,surviving fraction,[2]; 100 nM,0.999 ± 0.049
same,surviving fraction,[2]; 500 nM,1.06 ± 0.082
same,surviving fraction,[2]; 1000 nM,1.02 ± 0.054
